Data reported in paper PMC3230598, “Structural Studies of β-Carbonic Anhydrase from the Green Alga Coccomyxa: Inhibitor Complexes with Anions and Acetazolamide” (PLoS ONE, 2011).

Key:
Co-CA (Coccomyxa β-CA) = biological target: T1, Co-CA (Coccomyxa β-CA) (Coccomyxa sp. PA, UniProt Q96554); assay: X-ray crystal structure of co-crystal, […] Å; format: binding; settings: 15 mM NaSCN, 1.8 M NaKPO4 pH 7.2; N bound to active-site zinc (2.0 Å); also at dimer interface
T1 construct: zinc enzyme, homotetramer (dimer of dimers); residues 6-227 modelled

[1] = biological target: the molecule itself; assay: crystal structure; Co-CA at ~35 mg/ml in 10 mM Tris-HCl pH 7.4, hanging drop at 18°C, 1.6-2.3 M Na,KPO4 pH 7.2, with acetazolamide, phosphate, thiocyanate, azide or iodide; space group P43212; one dimer in the asymmetric unit, tetramer by a crystallographic 2-fold

N#CS [SCN, thiocyanate]
X-ray crystal structure of co-crystal, 2.5 Å (Co-CA (Coccomyxa β-CA)): Azide and thiocyanate ions in the active site of Co-CA were clearly defined

B1: β-carbonic anhydrase from Coccomyxa sp. (enzyme, UniProt Q96554 1-227, looked up)
chain: MSAKDTADLSPLLEANRKWADECAAKDSTYFSKVAGSQAPEYLYIGCADSRVSPAQLFNMAPGEVFVQRNVGNLVSNKDLNCMSCLEYTVDHLKIKHILVCGHYNCGACKAGLVWHPKTAGVTNLWISDVREVRDKNAAKLHGLSADDAWDKMVELNVEAQVFNVCASPIVQAAWARGQPLSVHGIVYTPGTGLVKELIKPITGMEDAGALLRADLKQHCFFSESLA
notes: β-carbonic anhydrase of Coccomyxa sp., 227 amino acids, GenBank AAC33484.1; Met-1 to Asp-5 not seen in the electron density, models hold residues 6-227; One zinc ion per monomer; crystallised with acetazolamide, phosphate, thiocyanate, azide or iodide; also called Co-CA; Coccomyxa β-CA; source: E. coli, over-expressed, purified (amylose-resin column, Q-Sepharose Fast Flow)
stoichiometry N [1]: 4
